Residue numbers refer to the chain shown, from its start. *1 amine or outer side, *2 acyl side, *3 side chain or, on linkers, in order; H or OH if unused. Where a SMILES comes first, the peptide text is derived from it. γGlu = O=C(O)[CH](CCC(=O)[*:2])N[*:1]
Experiments:
human CaSR R66A mutant = target: T1, human CaSR R66A mutant (Homo sapiens, UniProt P41180, R66A); assay: Calcium mobilization assay, CaSR R66A mutant; assay type: cell-based; conditions: for Response in calcium mobilization assay: in words; for EC50: mean ± s.e.m., n = 3
T1 construct: (N); expressed in transfected cells; host or cells: PEAKrapid cells (ATCC), pcDNA 3.1, transient transfection
T1 sequence (P41180 20-1078 R66A): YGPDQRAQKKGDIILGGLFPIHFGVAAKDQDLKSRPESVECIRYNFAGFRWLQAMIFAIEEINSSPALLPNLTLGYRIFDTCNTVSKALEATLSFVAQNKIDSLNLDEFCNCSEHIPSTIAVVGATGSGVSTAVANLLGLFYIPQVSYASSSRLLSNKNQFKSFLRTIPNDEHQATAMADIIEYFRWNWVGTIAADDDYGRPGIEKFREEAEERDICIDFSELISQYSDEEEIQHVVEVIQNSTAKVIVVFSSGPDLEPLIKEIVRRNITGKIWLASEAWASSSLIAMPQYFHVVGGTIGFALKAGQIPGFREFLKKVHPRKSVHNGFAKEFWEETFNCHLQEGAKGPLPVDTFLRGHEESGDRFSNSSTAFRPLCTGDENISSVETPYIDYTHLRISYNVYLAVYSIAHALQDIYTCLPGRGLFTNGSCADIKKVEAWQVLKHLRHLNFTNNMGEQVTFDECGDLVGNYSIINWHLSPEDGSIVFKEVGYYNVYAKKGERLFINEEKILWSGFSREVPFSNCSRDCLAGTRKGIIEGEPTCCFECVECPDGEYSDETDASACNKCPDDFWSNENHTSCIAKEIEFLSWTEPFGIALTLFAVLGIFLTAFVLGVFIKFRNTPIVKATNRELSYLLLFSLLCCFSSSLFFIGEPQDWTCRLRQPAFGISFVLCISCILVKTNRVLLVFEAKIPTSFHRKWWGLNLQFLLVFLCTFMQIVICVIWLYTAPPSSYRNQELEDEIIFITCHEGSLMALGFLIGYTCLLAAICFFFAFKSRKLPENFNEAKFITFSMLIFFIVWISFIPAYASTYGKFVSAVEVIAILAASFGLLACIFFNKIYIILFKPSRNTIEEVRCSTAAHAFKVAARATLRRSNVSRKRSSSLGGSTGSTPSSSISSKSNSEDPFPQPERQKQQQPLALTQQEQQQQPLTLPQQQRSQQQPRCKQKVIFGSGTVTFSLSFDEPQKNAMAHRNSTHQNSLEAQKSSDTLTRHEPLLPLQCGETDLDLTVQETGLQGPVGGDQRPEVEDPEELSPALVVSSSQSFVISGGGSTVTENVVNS
Method: (§1) The CaSR receptor responsiveness was assessed by using PEAK^rapid cells (ATCC, Manassas, VA, USA) transiently transfected with the receptor DNA by the method reported by Kitajima et al.[6]. Briefly, human CaSR or its mutant cDNA with a signal sequence (MAFYSCCWVLLALTWHTSA) followed by FLAG-tag (DYKDDDDK) were inserted into pcDNA 3.1 expression vectors in Opti-MEM I medium (Thermo Fisher Scientific), mixed with FuGENE 6 (Roche), and poured onto PEAK^rapid cells grown at a submaximal concentration. After culturing for 24 h in 96-well plates, the cells were incubated with 5 µM Calcium-5 solution (Calcium-5 assay kit, Molecular Devices) for 45–60 min, and measurements were performed using a plate reader (FDSS/µCELL, Hamamatsu Photonics, Shizuoka, Japan) and its associated software. The activation of CaSR expressed in cells increases the intracellular Ca^2+ concentration, which is measured using a Ca^2+-sensitive dye. The binding of Ca^2+ to the Ca^2+-sensitive dye increases dye fluorescence, with excitation at 485 nm and emission at 525 nm. Test compounds were dissolved and administered in the assay buffer (146 mM NaCl, 1 mM MgSO4, 20 mM HEPES, 1 mM CaCl2, 2.5 mM probenecid, and 1.39 mM glucose, pH 7.4). Transiently transfected cells were challenged with compounds and compared with the vehicle alone and/or mock-transfected cells. The concentration dependence of the fluorescence intensity (influx of Ca^2+) was analyzed using the plate reader at 1 s intervals for 180 s. For the dose–response curve calculations, peak fluorescence responses after the addition of compounds were corrected for, normalized to the background fluorescence (ΔF/F = –F − F0)/F0), and baseline noise was subtracted. Dose–response curves were calculated by non-linear regression using GraphPad PRISM 8.0.

human CaSR P39S mutant = target: T2, human CaSR P39S mutant (Homo sapiens, UniProt P41180, P39S); assay: Calcium mobilization assay, CaSR P39S mutant; assay type: cell-based; conditions: for Response in calcium mobilization assay: in words
T2 construct: expressed in transfected cells; host or cells: PEAKrapid cells (ATCC), pcDNA 3.1, transient transfection
T2 sequence (P41180 20-1078 P39S): T1 sequence (P41180 20-1078 R66A) with P20S, A47R
Method: as §1

| Response in calcium mobilization assay (human CaSR R66A mutant; R66A mutant) | Response in calcium mobilization assay (human CaSR P39S mutant) | Emax (% of wild-type values) (human CaSR R66A mutant; R66A mutant) | EC50 (human CaSR R66A mutant; R66A mutant) [mM] | Emax (% of wild-type values) (human CaSR P39S mutant) | EC50 (human CaSR P39S mutant; mean ± s.e.m., n = 3) [mM] | Structure (SMILES) | EC50 (human CaSR R66A mutant; R66A mutant, ND not detected) [mM] | Emax (human CaSR R66A mutant; read-out: Emax (% of wild-type values)) [%] |
| --- | --- | --- | --- | --- | --- | --- | --- | --- |
| no response | no response |  |  |  |  | N[C@@H](Cc1ccc(O)cc1)C(=O)O [L-Tyr, L-tyrosine] |  |  |
|  |  | 107.2 % of WT | 3.87 ± 0.5 | 74.5 % of WT | 7.52 ± 0.23 | [Ca+2].[Cl-].[Cl-] [CaCl2] |  |  |
| no response | no response |  |  |  |  | CC(C)[C@H](NC(=O)CC[C@H](N)C(=O)O)C(=O)O [γ-EV, γ-glutamyl-valine] |  |  |

| Structure (SMILES) | Response in calcium mobilization assay (human CaSR R66A mutant; R66A mutant) | Response in calcium mobilization assay (human CaSR P39S mutant) | Emax (% of wild-type values) (human CaSR R66A mutant; R66A mutant) | EC50 (human CaSR R66A mutant; R66A mutant) [mM] | Emax (% of wild-type values) (human CaSR P39S mutant) | EC50 (human CaSR P39S mutant; mean ± s.e.m., n = 3) [mM] | EC50 (human CaSR R66A mutant; R66A mutant, ND not detected) [mM] | Emax (human CaSR R66A mutant; read-out: Emax (% of wild-type values)) [%] |
| --- | --- | --- | --- | --- | --- | --- | --- | --- |
| CC(C)C(NC(=O)CCC(N)C(=O)O)C(=O)NCC(=O)O (stereo not drawn) [γ-EVG, γ-glutamyl-valyl-glycine] (γGlu-Val-Gly-OH; configuration not given here) | reduced its function compared to the wild-type | large decrease in the response |  |  |  |  | 0.0189 ± 0.0005 | 53.6 |

Source: paper PMC11785791, “Cryo-EM structure of the calcium-sensing receptor complexed with the kokumi substance γ-glutamyl-valyl-glycine” (Scientific Reports, 2025)
